“Also recorded” adds a separate entry of the source. Marks after values point to notes of the source that are not given here.
What was measured:
EHEB cells = assay: Chronic lymphocytic leukaemia xenograft animal model; assay type: in vivo, CB17-SCID mice
Procedure: The chronic lymphocytic leukaemia (CLL) EHEB cell line was cultured in RPMI-1640 medium containing 10% (v/v) heat-inactivated fetal bovine serum, 2 mM L-glutamine, 100 U/ml penicillin, and 100 μg/ml streptomycin at 37° C. in humidified 95% air and 5% CO2. Cells were periodically tested for Mycoplasma infection and found to be negative. CB17-severe combined immunodeficiency (SCID) mice (Charles River laboratories, Lyon, France), kept and handled according to institutional guidelines, complying with Spanish legislation under a 12/12 h light/dark cycle at a temperature of 22° C., received a standard diet and acidified water ad libitum. CB17-SCID mice were inoculated subcutaneously into their lower dorsum with 1.5×10^7 EHEB cells in 100 μl PBS and 100 μl Matrigel basement membrane matrix (Becton Dickinson). When tumors were palpable, mice were randomly assigned into cohorts of 10 mice each, receiving i.v. administration (3 times/week) of the compound at the tail. The volume used for each i. v. administration was […] rendering a final drug concentration of 2.5 mg/kg (body weight). Mice i. v. administered with an equal volume of vehicle were run in parallel. The shortest and longest diameter of the tumor were measured with calipers, and tumor volume (10^−3 cm^3) was calculated using the following standard formula: (the shortest diameter)^2×(the longest diameter)×0.5. Animals were sacrificed, according to institutional guidelines, when the diameter of their tumors reached 3 cm or when significant toxicity was observed. Animal body weight and any sign of morbidity were monitored. Drug treatment lasted for 41 days. Then, tumor xenografts were isolated, measured and weighed, and a necropsy analysis involving tumors and distinct organs was carried out. All values were expressed as means±SD. Statistical differences between groups were assessed using the Mann-Whitney test or the Student's t-test. A p value of less than 0.05 was considered statistically significant. Results are depicted in FIG. 1.

SW620 = assay: Apoptosis, sub-G1 peak and caspase activation; assay type: cell-based, human; conditions: SW620, 10 μM
Procedure: (§1) Induction of apoptosis in human colon cancer HCT-116 cell line by Compound 3 (FIG. 8A). The induction of apoptosis was quantitated as the percentage of cells in the sub-G1 region (hypodiplody) of cell cycle analysis. Briefly, cells (5×10^5) were centrifuged and fixed overnight in 70% ethanol at 4° C. Cells were washed 3 times with PBS, incubated for 1 h with 1 mg/ml RNaseA and 20 μg/ml propidium iodide at room temperature, and then analyzed for cell cycle with a Becton Dickinson FACSCalibur flow cytometer (San Jose, Calif.). HCT-116 cells were incubated for the indicated times with 10 μM Compound 3, and apoptosis was then quantitated as percentage of cells in the sub-G1 region in cell cycle analysis by flow cytometry. The position of the sub-G1 peak (hypodiploidy), integrated by apoptotic cells, as well as the G0/G1 and G2/M peaks are indicated by arrows. Untreated control cells were run in parallel. The percentage of cells with a DNA content less than G1 (sub-G1) is indicated in each histogram. The experiment shown is representative of three performed Expression of different apoptosis-related proteins during Compound 3 treatment (FIG. 8B), HCT-116 and SW620 cells were treated with 10 μM Compound 3 for the indicated times and analyzed by immunoblotting with specific antibodies for the indicated proteins. […]

HCT-116 = assay: Apoptosis, sub-G1 peak and caspase activation; assay type: cell-based, human; conditions: HCT-116, 10 μM
Procedure: as §1

B16 melanoma mouse cells = assay: Melanoma orthotopic animal model; assay type: in vivo; conditions: 30 mg/kg intraperitoneal
Procedure: Compound 3 dose was 30 mg/kg intraperitoneal in all of these experiments.
FIG. 5A represents a PET picture of melanoma tumor luciferase activity in vivo. The intensity of the signal is higher on tumours with more proliferative cells. […] FIG. 5C is a graph showing melanoma tumor weight after control or Compound 3 treatment. 4 different and independent experiments with n=4 animals per group were carried out.

[1] = system: human patient chronic lymphocytic leukaemia cells; assay: Viability of chronic lymphocytic leukaemia cells from patients; assay type: cell-based; conditions: cells with different ZAP70 expression
Procedure: A panel of 6 human patient chronic lymphocytic leukaemia cells was chosen showing different patterns of ZAP70 expression (see cytogenetic changes notated in the table 5). Cells were incubated in the presence of compound 3. Results of this study, showing the viability are depicted in FIG. 3.

[2] = 2.5 mg/kg i.v. 3 times/week, 41 days
[3] = ex vivo after 41 days, 2.5 mg/kg i.v. 3 times/week
[4] = vs control, 2.5 mg/kg i.v. 3 times/week, 41 days

**Q.** How did the “CLL tumor growth compared with the control group” value (EHEB cells; [2]) turn out when `Fc1ccc(CNCCCC=C(c2ccccc2)c2ccccc2)cc1` [Compound 3, (5,5-diphenyl-pent-4-enyl)-(4-fluoro-benzyl)-amine hydrocloride] was run?
**A.** inhibited CLL tumor growth; also recorded: stadistically significant

**Q.** And the “necropsy analysis of distinct organs” value (EHEB cells; [2])?
**A.** No significant events or changes in the distinct organs

**Q.** What about the “vascularization of isolated tumors” value (EHEB cells; compared to drug-free tumor-bearing control mice) of the same compound?
**A.** very little vascularization

**Q.** And the “Tumor Volume” value (EHEB cells; [3])?
**A.** 0.487 cm^3

**Q.** And the “Tumor Weight” value (EHEB cells; [3])?
**A.** 0.932 g

**Q.** What about the “Inhibition (%) of Tumor Volume” value (EHEB cells; [4]) of the same compound?
**A.** 74.88** %

**Q.** What about the “Inhibition (%) of Tumor Weight” value (EHEB cells; [4]) of the same compound?
**A.** 50.69** %

**Q.** What about the “apoptosis (sub-G1 peak, caspase activation)” value (SW620) of the same compound?
**A.** induces apoptosis

**Q.** What about the “apoptosis (sub-G1 peak, caspase activation)” value (HCT-116) of the same compound?
**A.** induces apoptosis

**Q.** What about the “in vivo antitumor activity, melanoma” value (B16 melanoma mouse cells) of the same compound?
**A.** potent in vivo antitumor activity

**Q.** What about the “decrease of viability of patient CLL cells” value [1] of the same compound?
**A.** more significant in cell with a low expression of ZAP70

Source: patent publication US20130296346A1, “DIPHENYL-AMINE DERIVATIVES: USES, PROCESS OF SYNTHESIS AND PHARMACEUTICAL COMPOSITIONS” (Faes Farma, S.A., priority 2010, published 2013)
